Test [1] relates to mammography-established dense breasts. Description: Treatment of dense breasts: oral reduced TEMPOL in a person. Format: in vivo, human. How it is done:
The reduced form of TEMPOL (TEMPOL-H) or equivalent pharmacologically-active spin label/spintrap is prepared by mixing together 2 grams of TEMPOL or a pharmacologically effective amount of another spin-label or spin trap such as methynitrosopropane, 20 grams of ascorbic acid or other reducing compound in 100 ml of distilled water. The formulation is used as is. The solution is slightly-bitter. The formulation can be administered diluted in a suitable liquid such as juice, tea, or coffee. An equivalent dry form as 10 mg of tempol mixed with 100 mg of ascorbic acid or equivalent reducing substance can be easily prepared in capsule or tablet form.
One-half ml of the above solution, comprising 10 mg TEMPOL plus 100 mg ascorbic acid, was administered orally once a day to a 50 kg person with mammography-established dense breasts.

The next test deals with breast density. Description: Extemporaneous oral TEMPOL-H treatment for fibrocystic disease of breast. The note with it: patient. Format: in vivo, human.
A further test relates to acute ischemic stroke. The note with it: Shuaib et al. N Engl J Med 2007; cited from earlier work.

Here are results for three compounds from US10028943B2, “Method for treatment of radiologically-dense breasts” (priority 2015, dated 2018).

Take `CC1(C)CC(O)CC(C)(C)N1[O]` [Tempol, 4-hydroxy-2,2,6,6-tetramethylpiperidin-1-yloxy]: the “efficacy of unreduced Tempol itself” value in test [1] (same doses as reduced TEMPOL (10 mg)) is listed as “effective at the same doses”.

As for `CC1(C)CC(O)CC(C)(C)N1O` [TEMPOL-H, the hydroxylamine reduced form of the nitroxide 4-hydroxy-2,2,6,6-tetramethylpiperidin-1-yloxy], the “clinical signs and symptoms upon cessation of treatment” value in the test on breast density (after cessation of treatment) is given as “reappeared within a few weeks”. In addition, in the test on breast density (after resumption of treatment), the “clinical signs and symptoms upon resumption of treatment” value is reported as “again regressed”. Also, the “clearing of breast density” value with breast density (oral formulation of TEMPOL-H) is on record as “significant clearing of breast density”. Moreover, in test [1] (10 mg TEMPOL plus 100 mg ascorbic acid orally once a day, 50 kg person, first results after several weeks of treatment), the “mammographic clearing of breast densities” value is “significant mammographic clearing of breast densities”. For the same compound, the “breast densities on cessation of treatment” value in test [1] (cessation of treatment for a few weeks) is reported as “eventually reappear on cessation of treatment for a few weeks”. For the same compound, the “breast densities upon reinstatement of treatment” value in test [1] (reinstatement of treatment) was “breast densities reoccur”.

On to `CC(C)(C)[N+]([O-])=Cc1ccc(S(=O)(=O)[O-])cc1S(=O)(=O)[O-].[Na+].[Na+]` [NXY-059, disulfonyl PBN], for which, in the test with acute ischemic stroke, the neuroprotective efficacy entry is “effective in animal models, but not in humans”.
